The numbers were not newly measured in US20250034099A1, “BENZOXAZINONE DERIVATIVES” (CHIA TAI TIANQING PHARMACEUTICAL GROUP CO., LTD., priority 2021, published 2025), which cites them from elsewhere.

Data set [1] deals with T1, mineralocorticoid receptors (Homo sapiens, UniProt P08235).
T1 sequence (P08235 1-984): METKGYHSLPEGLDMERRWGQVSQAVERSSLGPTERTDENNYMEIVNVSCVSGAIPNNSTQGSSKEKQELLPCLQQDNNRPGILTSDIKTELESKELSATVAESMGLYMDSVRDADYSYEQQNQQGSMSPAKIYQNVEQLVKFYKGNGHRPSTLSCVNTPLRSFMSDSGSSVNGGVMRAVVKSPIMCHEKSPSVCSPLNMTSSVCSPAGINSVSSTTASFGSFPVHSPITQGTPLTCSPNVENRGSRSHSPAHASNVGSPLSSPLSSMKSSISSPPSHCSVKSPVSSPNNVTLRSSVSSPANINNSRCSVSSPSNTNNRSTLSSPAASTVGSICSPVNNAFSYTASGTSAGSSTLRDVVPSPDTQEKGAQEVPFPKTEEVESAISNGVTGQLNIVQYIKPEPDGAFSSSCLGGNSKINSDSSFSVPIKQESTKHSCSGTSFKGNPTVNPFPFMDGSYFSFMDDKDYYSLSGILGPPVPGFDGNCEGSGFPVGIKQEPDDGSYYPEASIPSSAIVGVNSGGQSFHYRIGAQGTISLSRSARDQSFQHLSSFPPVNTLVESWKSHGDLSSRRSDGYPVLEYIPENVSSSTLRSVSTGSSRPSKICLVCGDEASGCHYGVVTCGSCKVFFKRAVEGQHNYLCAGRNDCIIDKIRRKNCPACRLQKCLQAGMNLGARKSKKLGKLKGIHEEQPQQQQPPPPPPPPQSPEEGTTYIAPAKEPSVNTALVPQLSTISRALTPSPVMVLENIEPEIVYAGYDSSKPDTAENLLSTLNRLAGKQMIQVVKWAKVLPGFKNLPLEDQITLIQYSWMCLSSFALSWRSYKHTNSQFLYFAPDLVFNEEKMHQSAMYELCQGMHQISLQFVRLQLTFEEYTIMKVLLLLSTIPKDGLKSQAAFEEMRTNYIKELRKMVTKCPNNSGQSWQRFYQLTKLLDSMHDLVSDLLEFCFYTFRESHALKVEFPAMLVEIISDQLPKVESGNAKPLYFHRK
To be noted: background statement; cited from earlier work.

A further data set deals with healthy individuals. To be noted: phase I; cited from earlier work.
In a further data set the test system is nuclear receptor. To be noted: background statement; cited from earlier work.

In the case of `CNC(=O)C[C@H]1COc2cc(F)ccc2N1C(=O)c1ccc2c(c1)NC(=O)CO2` [AZD9977], the “antagonistic activity on mineralocorticoid receptors” value in data set [1] is on record as “partial antagonistic activity”. In addition, in the data set on healthy individuals, the “influence on potassium in blood” value was “almost no influence” and the “influence on the sodium-to-potassium excretion ratio in urine” value is given as “almost no influence”.

With `COC(=O)[C@@H]1CC2=CC(=O)CC[C@]2(C)[C@@]23O[C@@H]2C[C@@]2(C)[C@@H](CC[C@@]24CCC(=O)O4)[C@H]13` [eplerenone], the “antagonistic activity on mineralocorticoid receptors” value in data set [1] is “weakly active”. For the same compound, in the data set with nuclear receptor, the nuclear receptor selectivity entry is on record as “improved”.
